According to US11925629B2, “Heterocyclic inhibitors of ERK1 and ERK2 and their use in the treatment of cancer” (Asana Biosciences, LLC, priority 2015, dated 2024):
pIC50: −log10 of the molar value. Where two headings read alike, the source gives them in different places.

Tests used:
Format in all cases: cell-based, human
[1] = tested on: HT-29 (colorectal carcinoma, B-RafV600E) cells; test: Cell proliferation (Alamar Blue) assay, HT-29; conditions: Homo sapiens, HT-29, HT29 cells
Outline: (§1)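 Cells seeded at 5000/well and allowed 16-24 h at 37° C./5% CO2, then exposed to 3-fold serial dilutions (typically 0.0005 to 10 uM) for 72 h. Viability read by Alamar Blue (1×, 1-3 h) fluorescence at 540/590 nm; IC50 from variable-slope sigmoidal fit.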

[2] = tested on: phosphorylation of RSK1(S380) (the downstream target of ERK1/2); test: Phospho-RSK1(S380) ELISA assay in HT-29 cells; conditions: Homo sapiens, HT-29, HT29 cells, read-out: Mechanistic Cell Assay RSK1 Phos HT29 IC50
Procedure: Phospho-RSK1(S380) ELISA Assay
HT-29 cells (colorectal carcinoma, B-RafV600E); obtained from ATCC, USA) were seeded (60,000 cells/well) in a 96-well plate and incubated at 37° C./5% CO2 overnight and then treated with desired compound dilutions for 2 h. Medium was removed and cells were rinsed once with ice-cold 1×PBS, then 0.070 mL ice-cold 1× cell lysis buffer containing 1 mM PMSF was added to each well and the plate was incubated on a shaker for 2 h and 30 min at 4° C. The plate was then centrifuged for 20 min (×4000 rpm) at 4° C. and the supernatant was transferred to a new plate. Cell lysates were diluted with sample diluent at a ratio of 1:1. The ELISA was then carried out following the manufacturer's protocol (PathScan® phospho-RSK1(Ser380) Sandwich ELISA Kit, Cell Signaling Technologies). The plate was read at 450 nm within 30 min after adding STOP solution. The IC50 values were subsequently determined using a sigmoidal dose-response curve (variable slope) in GraphPad Prism® 5 software.

[3] = tested on: HCT116 (colorectal carcinoma, K Ras G13D) cells; test: Cell proliferation (Alamar Blue) assay, HCT116; conditions: Homo sapiens, HCT-116, HCT116 cells
Outline: as §1

| Structure (SMILES) | pIC50 [1] | pIC50 ([2]; phospho-RSK1(S380)) | pIC50 [3] | pIC50 [2] |
| --- | --- | --- | --- | --- |
| Cc1cnc(NC2CCOCC2)nc1-n1cnc(C(=O)N[C@@H](CN)c2cccc(Cl)c2)c1 (single isomer, unassigned) [Compound 225b] | ≥ 7.00 | 6.60 to 7.00 | 5.60 to 6.30 |  |
| Cc1cnc(Nc2ccccc2)cc1-n1ccc(C(=O)NC(CO)c2ccccc2)c1 (stereo not drawn) [Cmpd 74, N-(2-hydroxy-1-phenylethyl)-1-(5-methyl-2-(phenyl-amino)pyridin-4-yl)-1H-pyrrole-3-carboxamide] | 5.60 to 6.30 | 5.60 to 6.30 | < 5.60 |  |
| Cc1cnc(NC2CCOCC2)nc1-n1cnc(C(=O)NC(CN)c2cccs2)c1 (stereo not drawn) [Example 267, N-(2-amino-1-(thiophen-2-yl)ethyl)-1-(5-methyl-2-((tetrahydro-2H-pyran-4-yl)amino)pyrimidin-4-yl)-1H-imidazole-4-carboxamide] |  | 6.60 to 7.00 | 6.60 to 7.00 |  |
| Cc1cnc(Nc2cccc(N3CCOCC3)c2)nc1-n1cnc(C(=O)N[C@H](CN)c2cccc(Cl)c2)c1 [Example 272, (S)-N-(2-amino-1-(3-chlorophenyl)ethyl)-1-(5-methyl-2-((3-morpholinophenyl)amino)pyrimidin-4-yl)-1H-imidazole-4-carboxamide] |  | 6.30 to 6.60 | 6.60 to 7.00 |  |
| Cc1cnc(NC2CC(F)(F)C2)nc1-n1cnc(C(=O)N[C@@H](CN)c2cc(F)cc(Cl)c2)c1 [Example 289, (R)-N-(2-amino-1-(3-chloro-5-fluorophenyl)ethyl)-1-(2-((3,3-difluorocyclobutyl)amino)-5-methylpyrimidin-4-yl)-1H-imidazole-4-carboxamide] |  | 5.60 to 6.30 | < 5.60 |  |
| Cc1cnc(NC2CCOCC2)nc1-n1cnc(C(=O)NCc2ccccc2C(C)(C)O)c1 [Example 293, N-(2-(2-hydroxypropan-2-yl)benzyl)-1-(5-methyl-2-((tetrahydro-2H-pyran-4-yl)amino)pyrimidin-4-yl)-1H-imidazole-4-carboxamide] |  | 5.60 to 6.30 | 5.60 to 6.30 |  |
| Cc1cnc(NC2CCOCC2)nc1-n1cnc(C(=O)NCc2cccc(Cl)n2)c1 [Example 307, N-((6-chloropyridin-2-yl)methyl)-1-(5-methyl-2-((tetrahydro-2H-pyran-4-yl)amino)pyrimidin-4-yl)-1H-imidazole-4-carboxamide] | 5.60 to 6.30 | 5.60 to 6.30 |  |  |
| Cc1cnc(N[C@H]2CCOC2)nc1-n1cnc(C(=O)NCc2cccc(C(F)(F)F)c2)c1 [Example 311, (S)-1-(5-methyl-2-((tetrahydrofuran-3-yl)amino)pyrimidin-4-yl)-N-(3-(trifluoromethyl)benzyl)-1H-imidazole-4-carboxamide] |  |  | < 5.60 | 5.60 to 6.30 |
| Cc1cnc(NC2CCOCC2)nc1-n1cnc(C(=O)NC(C(N)=O)c2cccc(Cl)c2)c1 (stereo not drawn) [Example 312, N-(2-amino-1-(3-chlorophenyl)-2-oxoethyl)-1-(5-methyl-2-((tetrahydro-2H-pyran-4-yl)amino)pyrimidin-4-yl)-1H-imidazole-4-carboxamide] |  |  | < 5.60 | 5.60 to 6.30 |
| Cc1cnc(N[C@H]2CCOC2)nc1-n1cnc(C(=O)NCc2cc(Cl)cc(Cl)c2)c1 [Example 313, (S)-N-(3,5-dichlorobenzyl)-1-(5-methyl-2-((tetrahydrofuran-3-yl)amino)pyrimidin-4-yl)-1H-imidazole-4-carboxamide] |  |  | < 5.60 | 6.30 to 6.60 |
| Cc1cnc(N[C@H]2CCOC2)nc1-n1cnc(C(=O)NCc2ccc(Cl)c(Cl)c2)c1 [Example 314, (S)-N-(3,4-dichlorobenzyl)-1-(5-methyl-2-((tetrahydrofuran-3-yl)amino)pyrimidin-4-yl)-1H-imidazole-4-carboxamide] |  |  | < 5.60 | 6.30 to 6.60 |

Next, values leading:

| pIC50 [1] | pIC50 ([2]; phospho-RSK1(S380)) | pIC50 [3] | pIC50 [2] | Structure (SMILES) |
| --- | --- | --- | --- | --- |
| ≥ 7.00 | ≥ 7.00 | ≥ 7.00 |  | Cc1cnc(NC2CCOCC2)nc1-n1cnc(C(=O)NC(CN)c2cccc(Cl)c2)c1 (racemic) [Compound 225, N-(2-Amino-1-(3-chlorophenyl)ethyl)-1-(5-methyl-2-((tetrahydro-2H-pyran-4-yl)amino)pyrimidin-4-yl)-1H-imidazole-4-carboxamide] |
|  | ≥ 7.00 | 6.60 to 7.00 |  | Cc1cnc(N[C@@H]2CCOC2)nc1-n1cnc(C(=O)N[C@H](CN)c2cccc(Cl)c2)c1 [Example 264, N-((S)-2-amino-1-(3-chlorophenyl)ethyl)-1-(5-methyl-2-(((R)-tetrahydrofuran-3-yl)amino)pyrimidin-4-yl)-1H-imidazole-4-carboxamide] |
|  | 6.30 to 6.60 | 6.60 to 7.00 |  | Cc1cnc(N[C@@H]2CCOC2)nc1-n1cnc(C(=O)N[C@H](CO)c2cccc(Cl)c2)c1 [Example 265, N-((S)-1-(3-chlorophenyl)-2-hydroxyethyl)-1-(5-methyl-2-(((R)-tetrahydrofuran-3-yl)amino)pyrimidin-4-yl)-1H-imidazole-4-carboxamide] |
|  | ≥ 7.00 | ≥ 7.00 |  | Cc1cnc(Nc2ccc3c(c2)OCO3)nc1-n1cnc(C(=O)N[C@H](CN)c2cccc(Cl)c2)c1 [Example 266, (S)-N-(2-amino-1-(3-chlorophenyl)ethyl)-1-(2-(benzo[d][1,3]dioxol-5-ylamino)-5-methylpyrimidin-4-yl)-1H-imidazole-4-carboxamide] |
|  | ≥ 7.00 | ≥ 7.00 |  | Cc1cnc(NC2COC2)nc1-n1cnc(C(=O)N[C@H](CN)c2cccc(Cl)c2)c1 [Example 268, (S)-N-(2-amino-1-(3-chlorophenyl)ethyl)-1-(5-methyl-2-(oxetan-3-ylamino)pyrimidin-4-yl)-1H-imidazole-4-carboxamide] |
|  | ≥ 7.00 | ≥ 7.00 |  | Cc1cnc(Nc2ccc3c(c2)OCO3)nc1-n1cnc(C(=O)NC(CN)c2cc(F)cc(Cl)c2)c1 (stereo not drawn) [Example 269, N-(2-amino-1-(3-chloro-5-fluorophenyl)ethyl)-1-(2-(benzo[d][1,3]dioxol-5-ylamino)-5-methylpyrimidin-4-yl)-1H-imidazole-4-carboxamide] |
|  | ≥ 7.00 | ≥ 7.00 |  | Cc1cnc(NC2CCOc3ccccc32)nc1-n1cnc(C(=O)N[C@H](CN)c2cccc(Cl)c2)c1 (stereo partly drawn) [Example 271, N-((S)-2-amino-1-(3-chlorophenyl)ethyl)-1-(2-(chroman-4-ylamino)-5-methylpyrimidin-4-yl)-1H-imidazole-4-carboxamide] |
|  | 6.60 to 7.00 | ≥ 7.00 |  | Cc1cnc(NC2CC(F)(F)C2)nc1-n1cnc(C(=O)NCc2cccc(Cl)c2CO)c1 [Example 273, N-(3-chloro-2-(hydroxymethyl)benzyl)-1-(2-((3,3-difluorocyclobutyl)amino)-5-methylpyrimidin-4-yl)-1H-imidazole-4-carboxamide] |
|  | ≥ 7.00 | ≥ 7.00 |  | Cc1cnc(NC2CC(F)(F)C2)nc1-n1cnc(C(=O)NC(CN)c2cc(F)cc(Cl)c2)c1 (stereo not drawn) [Example 278, N-(2-amino-1-(3-chloro-5-fluorophenyl)ethyl)-1-(2-((3,3-difluorocyclobutyl)amino)-5-methylpyrimidin-4-yl)-1H-imidazole-4-carboxamide] |
|  | ≥ 7.00 | ≥ 7.00 |  | Cc1cnc(NC2CC=CCC2)nc1-n1cnc(C(=O)N[C@H](CN)c2cccc(Cl)c2)c1 (stereo partly drawn) [Example 292, N-((S)-2-amino-1-(3-chlorophenyl)ethyl)-1-(2-(cyclohex-3-en-1-ylamino)-5-methylpyrimidin-4-yl)-1H-imidazole-4-carboxamide] |
